By IC50 is commonly meant the concentration that gives 50% inhibition. Lower therefore signals greater potency.

In this assay the target is MAPK14 (human) (UniProt Q16539). The assay is described as follows: Inhibition of MAPK14 Kinase Activity.
Chain of MAPK14 (human) (Q16539 whole entry, looked up): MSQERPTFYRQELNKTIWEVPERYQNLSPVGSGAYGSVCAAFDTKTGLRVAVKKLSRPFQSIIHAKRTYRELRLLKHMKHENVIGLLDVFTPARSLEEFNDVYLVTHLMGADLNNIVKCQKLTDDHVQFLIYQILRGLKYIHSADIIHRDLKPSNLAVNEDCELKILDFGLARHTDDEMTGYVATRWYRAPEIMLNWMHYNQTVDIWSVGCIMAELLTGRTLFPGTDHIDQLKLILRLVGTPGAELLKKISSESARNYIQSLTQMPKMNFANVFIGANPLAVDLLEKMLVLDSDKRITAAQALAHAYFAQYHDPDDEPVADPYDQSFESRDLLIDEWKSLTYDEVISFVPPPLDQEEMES
The molecule `COC(=O)/C=C/c1ccccc1CC1CCC(=O)N(c2c(Cl)cccc2Cl)C1` (stereo not drawn) returned an IC50 not above 10 µM.

Consider `O=C1CCC(Cc2ccc(F)cc2F)CN1C1C(Cl)CC(O)CC1Cl` (stereo not drawn), for which the IC50 was not above 10 µM.

As to `CN1CC(Cc2cccc3ccccc23)CN(c2c(Cl)cccc2Cl)C1=O` (stereo not drawn), the IC50 was not above 10 µM.

As for `O=C(Cc1ccccc1)NC1CCC(Cl)C(N2CC(Oc3ccc(F)cc3F)CCC2=O)C1Cl` (stereo not drawn), the half-inhibitory concentration (IC50) was not above 10 µM.

Turning to `O=C1CCC(Oc2ccc3ccccc3c2)CN1c1c(Cl)cncc1Cl` (stereo not drawn), the IC50 was not above 10 µM.

`Cc1ccc(CC2CN(C)C(=O)N(c3c(Cl)cccc3Cl)C2)cc1` (stereo not drawn) gave an IC50 not above 10 µM.

The molecule `O=C1CSC(Cc2ccc(Cl)cc2)CN1c1c(Cl)cccc1Cl` (stereo not drawn) yielded an IC50 not above 10 µM.

For `CN1CC(Cc2ccc(F)cc2F)CN(c2c(Cl)ccc(NC(=O)Cc3ccccc3)c2Cl)C1=O` (stereo not drawn), the IC50 is not above 10 µM.

With `O=C1CCC(Sc2ccc(F)cc2F)CN1c1c(Cl)cc(CO)cc1Cl` (stereo not drawn), the IC50 was not above 10 µM.

In the case of `CNc1ccc(Cl)c(N2CC(Oc3ccc(F)cc3F)CCC2=O)c1Cl` (stereo not drawn), the IC50 was not above 10 µM.

On to `O=C1CCC(Sc2cccc3ccccc23)CN1c1c(Cl)cncc1Cl` (stereo not drawn), for which the IC50 is not above 10 µM.

`NC1CC(Cl)C(N2CC(Oc3ccc(F)cc3F)CCC2=O)C(Cl)C1` (stereo not drawn): the IC50 is not above 10 µM.

Consider `O=C1CCC(Cc2ccc(OC(F)(F)F)cc2)CN1c1c(Cl)cccc1Cl` (stereo not drawn), for which the IC50 was not above 10 µM.

Consider `Cc1nc(CNc2cc(Cl)c(N3CC(Cc4ccc(F)cc4F)CCC3=O)c(Cl)c2)c[nH]1` (stereo not drawn), for which the half-maximal inhibitory concentration (IC50) was not above 10 µM.

`O=C1NCC(Cc2ccc(Cl)cc2)CN1c1c(Cl)cccc1Cl` (stereo not drawn) had an IC50 not above 10 µM.

In the case of `O=C1[C@@H](O)C[C@@H](Cc2ccc(F)cc2F)CN1c1c(Cl)cccc1Cl`, the IC50 is not above 10 µM.

As to `CN1CC(Cc2ccc(F)cc2F)CN(c2c(Cl)ccc(CO)c2Cl)C1=O` (stereo not drawn), the IC50 was not above 10 µM.

As to `COc1ccccc1SC1CCC(=O)N(c2c(Cl)cncc2Cl)C1` (stereo not drawn), the IC50 was not above 10 µM.

Regarding `O=C1CCC(Sc2cc(F)cc(F)c2)CN1c1c(Cl)csc1Cl` (stereo not drawn), the IC50 is not above 10 µM.

The molecule `CN1CC(Cc2ccc(F)cc2)CN(c2c(Cl)cccc2Cl)C1=O` (stereo not drawn) gave an IC50 not above 10 µM.

Turning to `CN(C)C(=O)CNc1cc(Cl)c(N2CC(Cc3ccc(F)cc3F)CCC2=O)c(Cl)c1` (stereo not drawn), the IC50 is not above 10 µM.

With `O=C1NCC(Cc2cccc3ccccc23)CN1c1c(Cl)cccc1Cl` (stereo not drawn), the IC50 is not above 10 µM.

As for `CN1CCC(Nc2cc(Cl)c(N3CC(Cc4ccc(F)cc4F)CCC3=O)c(Cl)c2)CC1` (stereo not drawn), the half-maximal inhibitory concentration (IC50) is not above 10 µM.

Molecule `O=C1CCC(Oc2ccc(F)cc2F)CN1C1C(Cl)CCC(O)C1Cl` (stereo not drawn) yielded an IC50 not above 10 µM.

As to `O=C1CCC(Oc2ccccc2Cl)CN1c1c(Cl)csc1Cl` (stereo not drawn), the IC50 was not above 10 µM.

`O=C1OCC(Cc2cccc3ccccc23)CN1c1c(Cl)cccc1Cl` (stereo not drawn) came in with an IC50 not above 10 µM.

For `Cc1ccc(CC2CCC(=O)N(c3c(Cl)cncc3Cl)C2)c(C)c1` (stereo not drawn), the half-inhibitory concentration (IC50) was not above 10 µM.

`O=C1CSC(Cc2ccccc2Cl)CN1c1c(Cl)cccc1Cl` (stereo not drawn) registered an IC50 not above 10 µM.

Take `CNc1sc(Cl)c(N2CC(Oc3ccc(F)cc3F)CCC2=O)c1Cl` (stereo not drawn): the IC50 is not above 10 µM.

`Cc1cc(CCCCC(=O)O)cc(C)c1N1CC(Cc2ccc(F)cc2F)CCC1=O` (stereo not drawn) displayed a 50% inhibitory concentration (IC50) not above 10 µM.

Take `NC1CCC(Cl)C(N2CC(Cc3ccc(F)cc3F)CCC2=O)C1Cl` (stereo not drawn): the half-inhibitory concentration (IC50) was not above 10 µM.

In turn, `COc1ccc(CC2COC(=O)N(c3c(Cl)cccc3Cl)C2)cc1` (stereo not drawn) showed an IC50 not above 10 µM.

`O=C1CCC(Sc2cc(Cl)cc(Cl)c2)CN1c1c(Cl)csc1Cl` (stereo not drawn) came in with an IC50 not above 10 µM.

Molecule `O=C1CCC(Oc2ccc(Cl)cc2Cl)CN1c1c(Cl)csc1Cl` (stereo not drawn) registered an IC50 not above 10 µM.

Regarding `COc1ccccc1OC1CCC(=O)N(c2c(Cl)cncc2Cl)C1` (stereo not drawn), the IC50 was not above 10 µM.

As for `CNc1cc(Cl)c(N2CC(Oc3ccc(F)cc3F)CCC2=O)c(Cl)n1` (stereo not drawn), the IC50 was not above 10 µM.

Molecule `Cc1ccccc1CC1CCC(=O)N(c2c(Cl)cccc2Cl)C1` (stereo not drawn) showed an IC50 not above 10 µM.

As to `CC(=O)Nc1ccc(CC2CCC(=O)N(c3c(Cl)cccc3Cl)C2)cc1` (stereo not drawn), the IC50 was not above 10 µM.

`O=C(Cc1ccccc1)Nc1sc(Cl)c(N2CC(Oc3ccc(F)cc3F)CCC2=O)c1Cl` (stereo not drawn) showed an IC50 not above 10 µM.

With `Cc1cc(CCCCN(C)C)cc(C)c1N1CC(Cc2ccc(F)cc2F)CCC1=O` (stereo not drawn), the IC50 is not above 10 µM.

`CC(=O)Nc1cc(Cl)c(N2CC(Cc3ccc(F)cc3F)CCC2=O)c(Cl)n1` (stereo not drawn) displayed an IC50 not above 10 µM.

Molecule `O=C1CCC(Oc2cc(Cl)cc(Cl)c2)CN1c1c(Cl)ccnc1Cl` (stereo not drawn) displayed an IC50 not above 10 µM.

Regarding `O=C1CCC(Oc2cc(F)cc(F)c2)CN1c1c(Cl)csc1Cl` (stereo not drawn), the IC50 was not above 10 µM.

In the case of `O=C1CCC(Cc2ccccc2F)CN1c1c(Cl)cccc1Cl` (stereo not drawn), the 50% inhibitory concentration (IC50) is not above 10 µM.

For the molecule `Cc1ccccc1OC1CCC(=O)N(C2C(Cl)CCCC2Cl)C1` (stereo not drawn), the half-maximal inhibitory concentration (IC50) was not above 10 µM.

The molecule `O=C1CCC(Sc2ccc(Cl)cc2)CN1c1c(Cl)ccnc1Cl` (stereo not drawn) had an IC50 not above 10 µM.

The molecule `CCOC(=O)CCCC(=O)Nc1cc(Cl)c(N2CC(Cc3ccc(F)cc3F)CCC2=O)c(Cl)c1` (stereo not drawn) came in with a half-inhibitory concentration (IC50) not above 10 µM.

The molecule `COc1ccccc1CC1CCC(=O)N(c2c(Cl)ccnc2Cl)C1` (stereo not drawn) showed an IC50 not above 10 µM.

Regarding `Cc1ccccc1CC1CN(C)C(=O)N(c2c(Cl)cccc2Cl)C1` (stereo not drawn), the IC50 is not above 10 µM.

Consider `O=C1CCC(Sc2ccc(F)cc2F)CN1c1c(Cl)cc(CO)nc1Cl` (stereo not drawn), for which the IC50 was not above 10 µM.

`Cc1cc(/C=C/CCN(C)C)cc(C)c1N1CC(Cc2ccc(F)cc2F)CCC1=O` (stereo not drawn): the IC50 is not above 10 µM.

As for `O=C(NCc1ccccc1CC1CCC(=O)N(c2c(Cl)cccc2Cl)C1)Nc1ccccc1C(F)(F)F` (stereo not drawn), the half-inhibitory concentration (IC50) was not above 10 µM.

Molecule `O=C1CCC(Cc2ccc(F)cc2F)CN1c1c(Cl)ncc(O)c1Cl` (stereo not drawn) displayed an IC50 not above 10 µM.

Molecule `O=C1CCC(Cc2cc(Cl)cc(Cl)c2)CN1c1c(Cl)cncc1Cl` (stereo not drawn) had an IC50 not above 10 µM.

`CC(=O)Nc1cc(Cl)c(N2CC(Cc3ccc(F)cc3F)COC2=O)c(Cl)c1` (stereo not drawn) yielded a half-maximal inhibitory concentration (IC50) not above 10 µM.

As for `Cc1ccc(CC2CN(c3c(Cl)cccc3Cl)C(=O)CS2)cc1` (stereo not drawn), the IC50 was not above 10 µM.

The molecule `CC(=O)Nc1ccc(Cl)c(N2CC(Cc3ccc(F)cc3F)COC2=O)c1Cl` (stereo not drawn) came in with an IC50 not above 10 µM.

As to `O=C1CCC(Cc2ccc(F)cc2F)CN1c1nccs1` (stereo not drawn), the IC50 was not above 10 µM.

`Nc1cc(Cl)c(N2CC(Cc3ccc(F)cc3F)CSC2=O)c(Cl)c1` (stereo not drawn) registered an IC50 not above 10 µM.

For `O=C1CCC(Oc2ccc3ccccc3c2)CN1c1c(Cl)cccc1Cl` (stereo not drawn), the IC50 was not above 10 µM.

Turning to `COc1ccccc1CC1CNC(=O)N(c2c(Cl)cccc2Cl)C1` (stereo not drawn), the IC50 is not above 10 µM.

`Nc1ccc(Cl)c(N2CC(Cc3ccc(F)cc3F)SCC2=O)c1Cl` (stereo not drawn) displayed an IC50 not above 10 µM.

In turn, `NC(=O)NCCNc1cc(Cl)c(N2CC(Cc3ccc(F)cc3F)CCC2=O)c(Cl)c1` (stereo not drawn) came in with an IC50 not above 10 µM.

`CC(=O)Nc1cc(Cl)c(N2CC(Cc3ccc(F)cc3F)CSC2=O)c(Cl)c1` (stereo not drawn): the IC50 was not above 10 µM.

For `O=C1CCC(Sc2ccccc2Cl)CN1c1c(Cl)cccc1Cl` (stereo not drawn), the IC50 is not above 10 µM.

The molecule `O=C1CCC(Sc2ccccc2Cl)CN1c1c(Cl)cncc1Cl` (stereo not drawn) yielded an IC50 not above 10 µM.

`CNc1sc(Cl)c(N2CC(Cc3ccc(F)cc3F)CCC2=O)c1Cl` (stereo not drawn) returned an IC50 not above 10 µM.

`N#Cc1ccccc1CC1CCC(=O)N(c2c(Cl)cccc2Cl)C1` (stereo not drawn) displayed an IC50 not above 10 µM.

For the molecule `O=C(O)/C=C/c1ccccc1CC1CCC(=O)N(c2c(Cl)cccc2Cl)C1` (stereo not drawn), the IC50 is not above 10 µM.

As for `NNC(=O)CNc1cc(Cl)c(N2CC(Cc3ccc(F)cc3F)CCC2=O)c(Cl)c1` (stereo not drawn), the IC50 is not above 10 µM.

In the case of `O=C(O)CCC(=O)Nc1cc(Cl)c(N2CC(Cc3ccc(F)cc3F)CCC2=O)c(Cl)c1` (stereo not drawn), the IC50 was not above 10 µM.

Molecule `O=C1SCC(Cc2ccc(F)cc2F)CN1c1c(Cl)cccc1Cl` (stereo not drawn) returned a 50% inhibitory concentration (IC50) not above 10 µM.

Take `O=C1CCC(Cc2ccccc2F)CN1C1C(Cl)CCCC1Cl` (stereo not drawn): the IC50 was not above 10 µM.

Molecule `O=C1CCC(Oc2ccc(F)cc2F)CN1c1c(Cl)cc(CO)nc1Cl` (stereo not drawn) yielded an IC50 not above 10 µM.

The molecule `Cc1cc(C(=O)NCCCC(=O)O)cc(C)c1N1CC(Cc2ccc(F)cc2F)CCC1=O` (stereo not drawn) registered an IC50 not above 10 µM.

With `Cc1cc(C(=O)O)cc(C)c1N1C[C@@H](Cc2ccc(F)cc2F)C[C@@H](C)C1=O`, the concentration for half-maximal inhibition (IC50) was not above 10 µM.

`CNc1ccc(Cl)c(N2CC(Cc3ccc(F)cc3F)CNC2=O)c1Cl` (stereo not drawn) returned an IC50 not above 10 µM.

The molecule `CN1CC(Cc2ccc(F)cc2F)CN(c2c(Cl)cc(NC(=O)Cc3ccccc3)cc2Cl)C1=O` (stereo not drawn) registered an IC50 not above 10 µM.

Turning to `Nc1ncc(Cl)c(N2CC(Sc3ccc(F)cc3F)CCC2=O)c1Cl` (stereo not drawn), the IC50 is not above 10 µM.

Turning to `CNC1CC(Cl)C(N2CC(Cc3ccc(F)cc3F)CCC2=O)C(Cl)C1` (stereo not drawn), the concentration for half-maximal inhibition (IC50) was not above 10 µM.

Consider `Cc1ccc(CC2COC(=O)N(c3c(Cl)cccc3Cl)C2)cc1` (stereo not drawn), for which the IC50 is not above 10 µM.

As to `Cc1ccc(OC2CCC(=O)N(C3C(Cl)CCCC3Cl)C2)cc1` (stereo not drawn), the IC50 was not above 10 µM.

`O=C1CCC(Sc2ccc3ccccc3c2)CN1C1C(Cl)CCCC1Cl` (stereo not drawn) returned an IC50 not above 10 µM.

Take `O=C1CCC(Cc2ccccc2)CN1c1c(F)cccc1F` (stereo not drawn): the IC50 is not above 10 µM.

Molecule `O=C1CCC(Cc2ccc(F)cc2F)CN1c1c(Cl)cc(NCc2ccccc2O)cc1Cl` (stereo not drawn) had an IC50 not above 10 µM.

On to `O=C1NCC(Cc2ccc(F)cc2F)CN1c1c(Cl)cc(CO)cc1Cl` (stereo not drawn), for which the IC50 was not above 10 µM.

In turn, `O=C1CCC(Oc2ccc(F)cc2F)CN1c1c(Cl)sc(CO)c1Cl` (stereo not drawn) came in with an IC50 not above 10 µM.

On to `O=C1CCC(Sc2ccc(F)cc2F)CN1c1c(Cl)cccc1Cl` (stereo not drawn), for which the IC50 was not above 10 µM.

With `O=C1CCC(Sc2cccc3ccccc23)CN1c1c(Cl)cccc1Cl` (stereo not drawn), the IC50 was not above 10 µM.

Molecule `O=C1CCC(Cc2ccc(F)cc2F)CN1c1c(Cl)sc(CO)c1Cl` (stereo not drawn) registered an IC50 not above 10 µM.

In the case of `CC[C@H]1C[C@@H](Cc2ccc(F)cc2F)CN(c2c(Cl)cccc2Cl)C1=O`, the IC50 was not above 10 µM.

Molecule `Cc1ccccc1CC1COC(=O)N(c2c(Cl)cccc2Cl)C1` (stereo not drawn) had a 50% inhibitory concentration (IC50) not above 10 µM.

The molecule `O=C1COC(Cc2ccc(F)cc2F)CN1c1c(Cl)ccc(CO)c1Cl` (stereo not drawn) registered an IC50 not above 10 µM.

Molecule `Nc1ccc(Cl)c(N2CC(Cc3ccc(F)cc3F)OCC2=O)c1Cl` (stereo not drawn) registered an IC50 not above 10 µM.

For `O=C1CCC(Cc2cccc3ccccc23)CN1c1c(Cl)cncc1Cl` (stereo not drawn), the IC50 was not above 10 µM.

`COc1ccccc1OC1CCC(=O)N(c2c(Cl)ccnc2Cl)C1` (stereo not drawn) came in with a concentration for half-maximal inhibition (IC50) not above 10 µM.

Take `O=C1CCC(Oc2cccc3ccccc23)CN1c1c(Cl)ccnc1Cl` (stereo not drawn): the IC50 was not above 10 µM.

`CC(C)(C)NC(=O)CNc1cc(Cl)c(N2CC(Cc3ccc(F)cc3F)CCC2=O)c(Cl)c1` (stereo not drawn): the IC50 is not above 10 µM.
